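Briefly, cells in 96-well plates were exposed to five compound concentrations for 48 h, and endpoints were estimated by linear interpolation. The concentration for 50% growth inhibition is given as GI50. TGI marks complete inhibition of growth.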
Columns and labels:
Experiment in all cases: inhibition of tumour cell growth, NCI panel, 48 h
SF-295 CNS = test system: SF-295 CNS
SF-268 CNS = test system: SF-268 CNS
HCT-116 colon = test system: HCT-116 colon
RXF 393 renal = test system: RXF 393 renal
HCC-2998 colon = test system: HCC-2998 colon
SF-539 CNS = test system: SF-539 CNS
SK-OV-3 ovarian = test system: SK-OV-3 ovarian
NCI-H23 lung = test system: NCI-H23 lung
HL-60(TB) leukemia = test system: HL-60(TB) leukemia
DU-145 prostate = test system: DU-145 prostate

SMILES	TGI (SF-295 CNS) [µM]	TGI (SF-268 CNS) [µM]	TGI (HCT-116 colon) [µM]	TGI (RXF 393 renal) [µM]	TGI (HCC-2998 colon) [µM]	TGI (SF-539 CNS) [µM]	TGI (SK-OV-3 ovarian) [µM]	TGI (NCI-H23 lung) [µM]	TGI (HL-60(TB) leukemia) [µM]	TGI (DU-145 prostate) [µM]	GI50 (SF-295 CNS) [µM]	GI50 (SF-268 CNS) [µM]	GI50 (HCT-116 colon) [µM]	GI50 (HCC-2998 colon) [µM]	GI50 (SF-539 CNS) [µM]	GI50 (SK-OV-3 ovarian) [µM]	GI50 (DU-145 prostate) [µM]	GI50 (NCI-H23 lung) [µM]	GI50 (HL-60(TB) leukemia) [µM]	GI50 (RXF 393 renal) [µM]
O=S(=O)(N/N=C/c1cccc(Cl)c1Cl)c1ccccc1	> 100	> 100	> 100	> 100	> 100	> 100	> 100	> 100	> 100	–	–	–	–	–	–	–	–	–	–	–
CC1=C(C(=O)NCc2ccccc2)C(c2ccc([N+](=O)[O-])cc2)C(C(=O)NCc2ccccc2)=C(C)N1	> 100	> 100	60.6	86.5	> 100	> 100	–	> 100	49.3	–	–	–	–	–	–	–	–	–	–	–
COc1ccc(C(=O)C(c2ccc(OC)cc2)C2OC(=O)C(Cl)=C2Cl)cc1 (configuration not stated)	> 100	> 100	> 100	> 100	> 100	> 100	> 100	> 100	> 100	–	–	–	–	–	–	–	–	–	–	–
CC(C)C1CC2C(=O)N(c3ccccc3)C(=O)C2c2[nH]c3ccccc3c21 (configuration not stated)	65.5	–	14.8	57.4	> 100	67.5	79.4	84	93.9	–	–	–	–	–	–	–	–	–	–	–
Cc1nc(-c2ccccc2)cc2c1c(=O)oc1ccccc12	> 100	> 100	> 100	> 100	> 100	> 100	> 100	> 100	> 100	–	–	–	–	–	–	–	–	–	–	–
CC(=O)C1C(=O)NC(=O)C1=O (configuration not stated)	> 100	> 100	> 100	> 100	> 100	> 100	> 100	> 100	–	–	–	–	–	–	–	–	–	–	–	–
O=C1c2ccccc2NC1(c1ccccc1)c1c(-c2ccccc2)[nH]c2ccccc12 (configuration not stated)	> 100	–	> 100	64.1	> 100	> 100	> 100	> 100	30.3	–	–	–	–	–	–	–	–	–	–	–
O=C(O)/C(Cl)=C(\Cl)C(=O)NC1C2CC3CC(C2)CC1C3 (configuration not stated)	> 100	> 100	> 100	–	> 100	> 100	> 100	> 100	> 100	–	–	–	–	–	–	–	–	–	–	–
CC(=O)O[C@@H]1[C@@H](O)C2=C3[C@]4(C)[C@@H]1C(C)(C)C(=O)C[C@@H]4[C@]3(O)[C@H](OC(C)=O)[C@@]1(C[C@@H]1C)C2=O	42.1	81.7	30.8	–	32.7	56.1	52.6	> 100	49.1	33.8	–	–	–	–	–	–	–	–	–	–
COC(=O)Nc1nc2ccc(C(=O)c3ccc(N(C)C4COC4)cc3)cc2[nH]1	> 100	> 100	> 100	–	> 100	1.16	> 100	> 100	2.85	> 100	0.28	0.745	0.36	0.716	0.264	0.536	0.392	0.713	0.266	–
Cc1cc2cn3c4ccc(O)cc4[nH]c(=O)c3c2cc1C	0.221	–	–	1.43	1.3	0.0601	0.298	1.4	–	0.315	0.0356	–	–	0.0679	0.0223	0.0293	0.0285	0.0744	–	0.0258
NCCN.NCCN.O=C[O-].O=C[O-].[Co+3].[O-][Cl+3]([O-])([O-])[O-]	> 100	> 100	> 100	> 100	> 100	> 100	> 100	> 100	> 100	–	> 100	> 100	> 100	> 100	> 100	> 100	–	> 100	> 100	> 100
COc1ccc(Cc2cc3c(cc2OCC(=O)O)OCO3)cc1	> 100	> 100	> 100	> 100	> 100	> 100	> 100	> 100	> 100	–	–	–	–	–	–	–	–	–	–	–
O=C(c1ccccc1)c1oc2ccc(Br)cc2c1-c1cnn(-c2ccccc2)c1	> 100	> 100	–	> 100	> 100	–	> 100	> 100	> 100	–	–	–	–	–	–	–	–	–	–	–
CN(CCc1ccccn1)c1nc(=[N+](C)C)ss1	> 100	> 100	–	> 100	> 100	> 100	> 100	> 100	> 100	–	–	–	–	–	–	–	–	–	–	–
O=C(/C=C/C=C/c1c(C2CC2)nc2ccccc2c1-c1ccc(F)cc1)c1cccs1	5.97	> 100	–	–	4.95	6.65	> 100	> 100	5.48	> 100	1.95	3.35	–	1.99	2.39	9.44	2.46	2.35	1.58	–
O=C(Nc1cccc(Cc2cccc(NC(=O)c3ccccc3)c2)c1)c1ccccc1	70.2	> 100	> 100	46.6	> 100	39.6	62.5	> 100	> 100	–	–	–	–	–	–	–	–	–	–	–
CN(/N=C/c1cccc2cccnc12)c1ccc([N+](=O)[O-])cc1	> 100	> 100	> 100	> 100	> 100	> 100	> 100	> 100	> 100	–	–	–	–	–	–	–	–	–	–	–
CN(C)CCSc1cccc(-c2cc(-c3cccc(SCCN(C)C)c3)nc(SCCN(C)C)n2)c1	3.52	–	2.95	2.8	7.76	3.19	45.5	15.3	3.67	–	–	–	–	–	–	–	–	–	–	–
Cc1ccc(NC(=O)C(=O)CC(=O)C2CCOC2=O)c(C)c1 (configuration not stated)	> 100	> 100	> 100	> 100	> 100	> 100	> 100	> 100	> 100	–	–	–	–	–	–	–	–	–	–	–
Clc1ccc(C2=Nn3c(nnc3-c3cc(Cl)cc(Cl)c3Cl)SC2)cc1	29.3	> 100	> 100	–	–	48.3	44.5	78.8	30.7	> 100	11	16.5	22.1	–	20.1	17.6	34.2	22.1	7.26	–
